One data set has as its system ATCC43300 (MRSA). The experiment in a line: In vitro antibacterial activity (MIC) against MRSA. It is filed as cell-based, Methicillin-resistant Staphylococcus aureus. Particulars: for MIC ATCC43300 (MRSA): MRSA strain ATCC43300, method of Pharmacopoeia of the People's Republic of China (2015 edition). How it is done:
(§1) An antibacterial activity of the compounds in Table 1 is determined in vitro, and a minimum inhibitory concentration (MIC) is read. The determination method refers to the method of the Pharmacopoeia of the People's Republic of China (2015 edition). The MRSA detection strain is purchased from ATCC, and the VRE detection strain is from the clinically isolated drug-resistant strain 07-W3-45 from Shanghai Huashan Hospital. Known antibiotic oritavancin (phosphate) is used for a reference drug.

Data set [1] deals with Clinical isolates 07-W3-45 (VRE). The experiment in a line: In vitro antibacterial activity (MIC) against VRE. It is filed as cell-based, Vancomycin-resistant Enterococcus. The note with it: for MIC Clinical isolates 07-W3-45 (VRE): clinically isolated drug-resistant strain 07-W3-45 from Shanghai Huashan Hospital. How it is done:
as §1

In the next data set the test system is wild AB zebrafish. The experiment in a line: Zebrafish toxicity test. It is filed as in vivo. The note with it: intravenous injection, 72 hours of treatment, samples in phosphate form. As to the method:
A zebrafish toxicity test of the compounds in Table 1 is also tested. Randomly select wild AB zebrafish in a six-well plate, and inject each test sample at a dose of 50, 100, 150, 200, and 250 ng/tail intravenously. At the same time, a normal control group and a solvent control group (aqueous phosphoric acid) are set; During this experiment, the death of zebrafish is observed and recorded every day and the dead fish are removed. After 72 hours of treatment, the death of zebrafish is counted. Calculate the LD50 of each test product to zebrafish.
All samples are tested for zebrafish toxicity in phosphate form.

In brackets after ≈: the same amount, converted by molar mass.

With `CNC(CC(C)C)C(=O)NC1C(=O)NC(CC(N)=O)C(=O)NC2C(=O)NC3C(=O)NC(C(=O)NC(C(=O)O)c4cc(O)cc(O)c4-c4cc3ccc4O)C(OC3CC(C)(N)C(O)C(C)O3)c3ccc(c(Cl)c3)Oc3cc2cc(c3OC2OC(CO)C(O)C(O)C2OC2CC(C)(NCc3ccc(SCc4ccc(Cl)cc4)cc3)C(O)C(C)O2)Oc2ccc(cc2Cl)C1O` (stereo not drawn) [Compound 15], the “MIC ATCC43300 (MRSA)” value against ATCC43300 (MRSA) was 0.032 µg/mL (≈ 0.0174 µM). Besides, the “MIC Clinical isolates 07-W3-45 (VRE)” value in data set [1] came out at 1 µg/mL (≈ 0.544 µM). In addition, the “Zebrafish LD50” value in the data set on wild AB zebrafish is 76 ng/tail.
The matching figures for `CNC(CC(C)C)C(=O)NC1C(=O)NC(CC(N)=O)C(=O)NC2C(=O)NC3C(=O)NC(C(=O)NC(C(=O)O)c4cc(O)cc(O)c4-c4cc3ccc4O)C(OC3CC(C)(N)C(O)C(C)O3)c3ccc(c(Cl)c3)Oc3cc2cc(c3OC2OC(CO)C(O)C(O)C2OC2CC(C)(NCc3ccc(SCCc4ccc(Cl)cc4)cc3)C(O)C(C)O2)Oc2ccc(cc2Cl)C1O` (stereo not drawn) [Compound 16]: 0.032 µg/mL (≈ 0.0173 µM), 0.5 µg/mL (≈ 0.27 µM) and 72 ng/tail.
The corresponding values for `CNC(CC(C)C)C(=O)NC1C(=O)NC(CC(N)=O)C(=O)NC2C(=O)NC3C(=O)NC(C(=O)NC(C(=O)O)c4cc(O)cc(O)c4-c4cc3ccc4O)C(OC3CC(C)(N)C(O)C(C)O3)c3ccc(c(Cl)c3)Oc3cc2cc(c3OC2OC(CO)C(O)C(O)C2OC2CC(C)(NCc3ccc(NCc4ccccc4)cc3)C(O)C(C)O2)Oc2ccc(cc2Cl)C1O` (stereo not drawn) [Compound 17] are 0.5 µg/mL (≈ 0.28 µM), 1 µg/mL (≈ 0.559 µM) and 139 ng/tail.
The matching figures for `CNC(CC(C)C)C(=O)NC1C(=O)NC(CC(N)=O)C(=O)NC2C(=O)NC3C(=O)NC(C(=O)NC(C(=O)O)c4cc(O)cc(O)c4-c4cc3ccc4O)C(OC3CC(C)(N)C(O)C(C)O3)c3ccc(c(Cl)c3)Oc3cc2cc(c3OC2OC(CO)C(O)C(O)C2OC2CC(C)(NCc3ccc(NCc4ccc(C)cc4)cc3)C(O)C(C)O2)Oc2ccc(cc2Cl)C1O` (stereo not drawn) [Compound 18]: 0.5 µg/mL (≈ 0.278 µM), 1 µg/mL (≈ 0.555 µM) and 128 ng/tail.
`CNC(CC(C)C)C(=O)NC1C(=O)NC(CC(N)=O)C(=O)NC2C(=O)NC3C(=O)NC(C(=O)NC(C(=O)O)c4cc(O)cc(O)c4-c4cc3ccc4O)C(OC3CC(C)(N)C(O)C(C)O3)c3ccc(c(Cl)c3)Oc3cc2cc(c3OC2OC(CO)C(O)C(O)C2OC2CC(C)(NCc3ccc(NCc4ccc(Cl)cc4)cc3)C(O)C(C)O2)Oc2ccc(cc2Cl)C1O` (stereo not drawn) [Compound 19]: the “MIC ATCC43300 (MRSA)” value in the data set on ATCC43300 (MRSA) turned out to be 0.25 µg/mL (≈ 0.137 µM). For the same compound, in data set [1], the “MIC Clinical isolates 07-W3-45 (VRE)” value was 0.2 µg/mL (≈ 0.11 µM). In addition, the “Zebrafish LD50” value with wild AB zebrafish worked out at 117 ng/tail.
The corresponding values for `CNC(CC(C)C)C(=O)NC1C(=O)NC(CC(N)=O)C(=O)NC2C(=O)NC3C(=O)NC(C(=O)NC(C(=O)O)c4cc(O)cc(O)c4-c4cc3ccc4O)C(OC3CC(C)(N)C(O)C(C)O3)c3ccc(c(Cl)c3)Oc3cc2cc(c3OC2OC(CO)C(O)C(O)C2OC2CC(C)(NCc3ccc(NCCc4ccccc4)cc3)C(O)C(C)O2)Oc2ccc(cc2Cl)C1O` (stereo not drawn) [Compound 20] are 0.5 µg/mL (≈ 0.278 µM), 2 µg/mL (≈ 1.11 µM) and 189 ng/tail.
For the compound `CNC(CC(C)C)C(=O)NC1C(=O)NC(CC(N)=O)C(=O)NC2C(=O)NC3C(=O)NC(C(=O)NC(C(=O)O)c4cc(O)cc(O)c4-c4cc3ccc4O)C(OC3CC(C)(N)C(O)C(C)O3)c3ccc(c(Cl)c3)Oc3cc2cc(c3OC2OC(CO)C(O)C(O)C2OC2CC(C)(NCc3ccc(NCCc4ccc(Cl)cc4)cc3)C(O)C(C)O2)Oc2ccc(cc2Cl)C1O` (stereo not drawn) [Compound 21], in the data set on ATCC43300 (MRSA), the “MIC ATCC43300 (MRSA)” value is 0.016 µg/mL (≈ 0.00871 µM). Also, the “MIC Clinical isolates 07-W3-45 (VRE)” value in data set [1] was found to be 0.5 µg/mL (≈ 0.272 µM). The “Zebrafish LD50” value in the data set with wild AB zebrafish turned out to be 102 ng/tail.
The matching figures for `CNC(CC(C)C)C(=O)NC1C(=O)NC(CC(N)=O)C(=O)NC2C(=O)NC3C(=O)NC(C(=O)NC(C(=O)O)c4cc(O)cc(O)c4-c4cc3ccc4O)C(OC3CC(C)(N)C(O)C(C)O3)c3ccc(c(Cl)c3)Oc3cc2cc(c3OC2OC(CO)C(O)C(O)C2OC2CC(C)(NCc3ccc(NCCc4ccc(C(F)(F)F)cc4)cc3)C(O)C(C)O2)Oc2ccc(cc2Cl)C1O` (stereo not drawn) [Compound 22]: 0.032 µg/mL (≈ 0.0171 µM), 0.25 µg/mL (≈ 0.134 µM) and 142 ng/tail.
For the compound `CNC(CC(C)C)C(=O)NC1C(=O)NC(CC(N)=O)C(=O)NC2C(=O)NC3C(=O)NC(C(=O)NC(C(=O)O)c4cc(O)cc(O)c4-c4cc3ccc4O)C(OC3CC(C)(N)C(O)C(C)O3)c3ccc(c(Cl)c3)Oc3cc2cc(c3OC2OC(CO)C(O)C(O)C2OC2CC(C)(NCc3ccc(NCCc4ccc(OC)cc4)cc3)C(O)C(C)O2)Oc2ccc(cc2Cl)C1O` (stereo not drawn) [Compound 23], in the data set with ATCC43300 (MRSA), the “MIC ATCC43300 (MRSA)” value was 0.5 µg/mL (≈ 0.273 µM). The “MIC Clinical isolates 07-W3-45 (VRE)” value in data set [1] turned out to be 1 µg/mL (≈ 0.546 µM). Besides, in the data set with wild AB zebrafish, the “Zebrafish LD50” value turned out to be 192 ng/tail.
The corresponding values for `CNC(CC(C)C)C(=O)NC1C(=O)NC(CC(N)=O)C(=O)NC2C(=O)NC3C(=O)NC(C(=O)NC(C(=O)O)c4cc(O)cc(O)c4-c4cc3ccc4O)C(OC3CC(C)(N)C(O)C(C)O3)c3ccc(c(Cl)c3)Oc3cc2cc(c3OC2OC(CO)C(O)C(O)C2OC2CC(C)(NCc3ccc(NCCCc4ccccc4)cc3)C(O)C(C)O2)Oc2ccc(cc2Cl)C1O` (stereo not drawn) [Compound 24] are 0.5 µg/mL (≈ 0.275 µM), 1 µg/mL (≈ 0.551 µM) and 153 ng/tail.
The corresponding values for `CNC(CC(C)C)C(=O)NC1C(=O)NC(CC(N)=O)C(=O)NC2C(=O)NC3C(=O)NC(C(=O)NC(C(=O)O)c4cc(O)cc(O)c4-c4cc3ccc4O)C(OC3CC(C)(N)C(O)C(C)O3)c3ccc(c(Cl)c3)Oc3cc2cc(c3OC2OC(CO)C(O)C(O)C2OC2CC(C)(NCc3ccc(NCCCc4ccc(Cl)cc4)cc3)C(O)C(C)O2)Oc2ccc(cc2Cl)C1O` (stereo not drawn) [Compound 25] are 0.064 µg/mL (≈ 0.0346 µM), 0.25 µg/mL (≈ 0.135 µM) and 97 ng/tail.
Broadly, the MIC is the lowest concentration found to suppress growth. As to `CN[C@H](CC(C)C)C(=O)N[C@H]1C(=O)N[C@@H](CC(N)=O)C(=O)N[C@H]2C(=O)N[C@H]3C(=O)N[C@H](C(=O)N[C@H](C(=O)O)c4cc(O)cc(O)c4-c4cc3ccc4O)[C@H](O[C@H]3C[C@](C)(N)[C@@H](O)[C@H](C)O3)c3ccc(c(Cl)c3)Oc3cc2cc(c3O[C@@H]2O[C@H](CO)[C@@H](O)[C@H](O)[C@H]2O[C@H]2C[C@](C)(NCc3ccc(-c4ccc(Cl)cc4)cc3)[C@@H](O)[C@H](C)O2)Oc2ccc(cc2Cl)[C@H]1O` [Orivancin, oritavancin, reference compound], the MIC was found to be 0.5 µg/mL (≈ 0.279 µM) with ATCC43300 (MRSA) (Staphylococcus aureus, read-out: MIC ATCC43300 (MRSA)) and 2 µg/mL (≈ 1.12 µM) in data set [1] (Enterococcus, VRE, read-out: MIC Clinical isolates 07-W3-45 (VRE)). For the same compound, in the data set on wild AB zebrafish, the “Zebrafish LD50” value is 89.4 ng/tail.

For the origin of these results see patent US11696937B2, “Glycopeptide compounds having activity of resisting drug-resistant bacteria, and preparation method and application thereof” (priority 2018, dated 2023).
